{
  "source": "patent US4837353A",
  "about": "“Dopamine-β-hydroxylase inhibitors” (SmithKline Beckman Corporation, priority 1988, dated 1989)",
  "key": {"[1]": {"tested_on": "spontaneously hypertensive rats", "experiment": "mean arterial blood pressure in spontaneously hypertensive rats", "type": "in vivo, rat", "conditions": "50 mg/kg intraperitoneally", "method": "Further, spontaneously hypertensive rats were treated with a suspension or solution of N-(2-aminoethyl)-1-(3,5-difluorobenzyl)-2-mercaptoimidazole-5-carboxamid formate at a dose of 50 mg/kg intraperitoneally, and mean arterial blood pressure was monitored for 260 minutes using indwelling cannulae in the tail arteries."}, "DBH": {"molecular_target": "T1, DBH (Homo sapiens, UniProt P09172)", "T1 sequence (P09172 1-617)": "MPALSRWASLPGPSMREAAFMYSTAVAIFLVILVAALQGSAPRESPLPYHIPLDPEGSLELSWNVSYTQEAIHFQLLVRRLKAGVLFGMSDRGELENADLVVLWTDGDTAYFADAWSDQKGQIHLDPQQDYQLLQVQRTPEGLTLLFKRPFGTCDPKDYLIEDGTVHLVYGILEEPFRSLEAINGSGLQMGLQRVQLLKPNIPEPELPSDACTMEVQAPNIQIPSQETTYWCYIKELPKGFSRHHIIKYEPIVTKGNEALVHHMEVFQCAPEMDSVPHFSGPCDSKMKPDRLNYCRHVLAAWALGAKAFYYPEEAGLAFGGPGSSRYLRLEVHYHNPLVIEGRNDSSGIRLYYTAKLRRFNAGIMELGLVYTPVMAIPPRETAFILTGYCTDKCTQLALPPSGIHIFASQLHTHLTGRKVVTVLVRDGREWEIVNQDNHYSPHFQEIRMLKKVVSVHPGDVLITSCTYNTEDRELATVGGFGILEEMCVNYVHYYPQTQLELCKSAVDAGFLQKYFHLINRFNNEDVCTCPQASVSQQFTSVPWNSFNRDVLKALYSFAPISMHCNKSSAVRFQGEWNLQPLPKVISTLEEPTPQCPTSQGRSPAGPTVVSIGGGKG", "conditions": "cited from earlier work; for mode of DBH inhibition: phenethylalamine analogues; for DBH inhibition (in words): literature reports"}},
  "note": "Structures can show the parent of a compound that is named as a salt.",
  "data": [
    {"smiles": "NCCNC(=O)c1cnc(S)n1Cc1cc(F)cc(F)c1", "note": "[N-(2-Aminoethyl)-1-(3,5-difluorobenzyl)-2-mercaptoimidazole-5-carboxamide,formate]", "values": [
      {"measurement": "blood pressure when monitoring was terminated", "setting": "[1]; 260 minutes", "value": "blood pressure remained decreased when monitoring was terminated"},
      {"measurement": "mean arterial blood pressure reduction compared to vehicle-treated controls", "setting": "[1]; tail artery cannulae, monitored for 260 minutes", "value": "significant blood pressure reductions"},
      {"measurement": "time following treatment to significant blood pressure reductions", "setting": "[1]; vs vehicle-treated controls", "value": "≤ 30", "unit": "min"}
    ]},
    {"smiles": "NNCc1ccccc1", "note": "[benzylhydrazine]", "values": [
      {"measurement": "mode of DBH inhibition", "setting": "DBH", "value": "apparently act as competitive inhibitors"}
    ]},
    {"smiles": "CCCCc1ccc(C(N)=O)nc1", "note": "[Bupicomide, 5-(n-butyl)picolinamine]", "values": [
      {"measurement": "DBH inhibition (in words)", "setting": "DBH", "value": "DBH inhibitor"}
    ]},
    {"smiles": "NOCc1ccccc1", "note": "[Benzyloxyamine, benzyloxyamine]", "values": [
      {"measurement": "mode of DBH inhibition", "setting": "DBH", "value": "apparently act as competitive inhibitors"}
    ]},
    {"smiles": "CN(C)C(=S)SCc1ccc(C(=O)O)nc1", "note": "[5-(dimethyldithiocarbamoylmethyl)picolinic acid]", "values": [
      {"measurement": "DBH inhibition (in words)", "setting": "DBH", "value": "DBH inhibitors"}
    ]},
    {"smiles": "O=C(O)c1ccc(CCC(Br)CBr)cn1", "note": "(stereo not drawn) [5-(3,4-dibromobutyl)picolinic acid]", "values": [
      {"measurement": "DBH inhibition (in words)", "setting": "DBH", "value": "DBH inhibitors"}
    ]},
    {"smiles": "O=C(O)c1ccc(CCCCCl)cn1", "note": "[5-(4-chlorobutyl) picolinic acid]", "values": [
      {"measurement": "DBH inhibition (in words)", "setting": "DBH", "value": "inhibit DBH"}
    ]}
  ]
}
